The results in this text go back to patent US20110245192A1, “NEW ACTIVATORS FOR TREATING AND/OR PREVENTING DISEASES OR MEDICAL CONDITIONS WHICH BENEFIT FROM AN INCREASED TRANSPORT OF HYALURONAN ACROSS A LIPID BILAYER” (priority 2008, published 2011).

This test deals with hyaluronan transport/export in fibroblasts. The experiment in a line: Assay for hyaluronan transport/export activators in fibroblast cell culture (hyaluronan in culture medium by ELISA). It counts as cell-based. To be noted: 2 days at 37° C. As for the experimental part:
Compound 89 activates 4,7fold, while compound 101 activates 2,4fold. The “activatory capability” as described herein is expressed as the ratio of hyaluronan exported in the presence and absence of the compound. Methods to determine the hyaluronan transport are disclosed herein, and are also disclosed in great detail in WO2005/013947.
Trypsinised fibroblasts were suspended in Dulbeccos medium at 10^5 cells/ml and 100 μl aliquots were transferred to a 96 well microtiter plate. The first row received 200 μl of the suspension and 20 μl of the activators of the invention dissolved in phosphate buffered saline at concentrations of 4 mM. A serial dilution of the activators was established by transfer of 100 μl aliquots from the first row to the following rows. All experiments were performed in duplicates. […] The cells were incubated for 2 days at 37° C. and aliquots (5 and 20 μl) of the culture medium were used for measurement of the hyaluronan concentration in the cell culture medium by an ELISA [125]. […] The adsorption was read at 490 nm. The concentrations in the samples were calculated from a logarithmic regression curve of the hyaluronan standard solutions. […]
For orientation: An ELISA detects its analyte on a solid surface through an enzyme-linked reagent.

As for `CC(=O)Nc1c(O)cccc1Oc1ccc(N)cc1C(=O)O` [Compound 101], the “activatory capability: ratio of hyaluronan exported in the presence and absence of the compound” value is 2,4 fold.
`CC(=O)Nc1c(O)cc(O)cc1Oc1ccc(N)cc1C(=O)O` [Compound 89]: the “activatory capability: ratio of hyaluronan exported in the presence and absence of the compound” value was 4,7 fold.
